Columns and labels:
human plasma = test: Prothrombin time (PT) assay; assay type: biochemical; conditions: concentration doubling prothrombin time in human plasma
Protocol: A commercially available automatic coagulometer (Steellex Science Instrument Co., Ltd., Beijing, China) was employed to measure PT. The clotting times were also measured using the instrument itself, in accordance with the manufacturer's instructions. Increasing concentrations of inhibitor or solvent were added to human plasma and incubated for 3 min at 37°C. Prothrombin time (PT) was determined by automatic coagulometer.

human FXa = molecular target: T1, human FXa (Homo sapiens, UniProt P00742); test: Inhibition activity measurement against FXa (chromogenic substrate CS-11(22)); assay type: biochemical; conditions: for Ki / IC50: human FXa; for IC50: chromogenic substrate, 37°C, read at 405 nm
T1 construct: purchased Hyphen BioMed
T1 sequence (P00742 235-488 limits assumed): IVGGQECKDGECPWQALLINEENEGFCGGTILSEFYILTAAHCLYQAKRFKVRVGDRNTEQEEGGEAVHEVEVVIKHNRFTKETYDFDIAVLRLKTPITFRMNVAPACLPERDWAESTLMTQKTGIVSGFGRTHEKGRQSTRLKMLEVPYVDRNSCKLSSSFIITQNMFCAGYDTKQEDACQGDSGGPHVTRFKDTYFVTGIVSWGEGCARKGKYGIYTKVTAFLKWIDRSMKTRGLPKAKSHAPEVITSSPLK
T1 sequence (P00742 41-179 partner limits assumed): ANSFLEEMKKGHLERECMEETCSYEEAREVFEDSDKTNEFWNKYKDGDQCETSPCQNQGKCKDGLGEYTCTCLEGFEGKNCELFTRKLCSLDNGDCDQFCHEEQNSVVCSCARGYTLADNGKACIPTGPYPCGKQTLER
Protocol: The inhibition of FXa was measured using human FXa (Hyphen BioMed, city, Paris, FRA) and chromogenic substrate CS-11(22) (Hyphen BioMed, Paris, FRA) in 384-well microtiter plates at room temperature. […] 2 μL of FXa (56.8 nM), 16 μL of Tris buffer (adjust to pH 7.4 with HCl containing 0.3 M NaCl and 50 mM Tris) and 3 μL of test compound were added to the well, respectively. The negative control was composed of the same mixed solutions except replacing test compound with DMSO. […] After incubated at 37°C for 5 min, 8 μL of FXa substrate solution (3.5 mM) was added and then incubated at 37°C for 25 min. The FXa activity was measured at 405 nm using a SpectraMax M5 (Molecular Devices, Sunnyvale, CA, USA). The IC50 was calculated by the software named SPSS (IBM, North Castle, NY, USA) and the Probit function in it.

human FIIa (thrombin) = tested on: human FIIa (thrombin); set-up: method as in PMID 16305517; conditions: read-out: IC50 against thrombin; cited from earlier work

## O=C(Nc1ccccc1C(=O)Nc1ccc(-n2ccccc2=O)cc1)c1ccc(Br)s1 [6a, 5-bromo-N-(2-((4-(2-oxopyridin-1(2H)-yl)phenyl)carb-amoyl)phenyl)thiophene-2-carboxamide]
Human plasma
  2 × PT (Human): 8.4 µM
Human FXa
  Ki: 20.5 nM
  IC50: 28.7 nM
other
  melting point: > 250 °C

## Cc1ccc(NC(=O)c2ccc(Br)s2)c(C(=O)Nc2ccc(-n3ccccc3=O)cc2)c1 [6a-b, 5-bromo-N-(4-methyl-2-((4-(2-oxopyridin-1(2H)-yl)ph-enyl)carbamoyl)phenyl)thiophene-2-carboxamide]
Human plasma
  2 × PT (Human): 4.2 µM
Human FXa
  Ki: 13.4 nM
  IC50: 18.8 nM
other
  melting point: > 250 °C

## O=C(Nc1ccc(Cl)cc1C(=O)Nc1ccc(N2CCOCC2=O)cc1)c1ccc(Br)s1 [6a-e, 5-bromo-N-(4-chloro-2-((4-(3-oxomorpholino)phenyl)carbamoyl)phenyl)thiophene-2-carboxamide]
Human plasma
  2 × PT (Human): 3.8 µM
Human FXa
  IC50: 125 nM
other
  melting point: > 250 °C

## O=C(Nc1ccccc1C(=O)Nc1ccc(-n2ccccc2=O)cc1)c1ccc(Cl)cc1Cl [6k, 2,4-dichloro-N-(2-((4-(2-oxopyridin-1(2H)-yl)phenyl)arbamoyl)phenyl)benzamide]
Human plasma
  2 × PT (Human): 16.4 µM
Human FXa
  Ki: 17 nM
  IC50: 23.8 nM
other
  melting point: > 250 °C

## O=C(Nc1ccc(Cl)cc1C(=O)Nc1ccc(-n2ccccc2=O)cc1)c1ccc(Cl)cc1Cl [6k-a, 2,4-dichloro-N-(4-chloro-2-((4-(2-oxopyridin-1(2H)-yl)phenyl)carbamoyl)phenyl)benzamide]
Human plasma
  2 × PT (Human): 16.9 µM
Human FXa
  Ki: 58.6 nM
  IC50: 82 nM
other
  melting point: > 250 °C

## Cc1ccc(NC(=O)c2ccc(Cl)cc2Cl)c(C(=O)Nc2ccc(-n3ccccc3=O)cc2)c1 [6k-b, 2,4-dichloro-N-(4-methyl-2-((4-(2-oxopyridin-1(2H)-yl)phenyl)carbamoyl)phenyl)benzamide]
Human plasma
  2 × PT (Human): 11.3 µM
Human FXa
  Ki: 25.4 nM
  IC50: 35.5 nM
other
  melting point: > 250 °C

## Cc1cccc(C(=O)Nc2ccc(N3CCOCC3=O)cc2)c1NC(=O)c1ccc(Cl)cc1Cl [6k-g, 2-(2,4-dichlorobenzamido)-3-methyl-N-(4-(3-oxomor-pholino)phenyl)benzamide]
Human FXa; SAR statement in text
  FXa inhibitory activity (in words): poor IC50 values at a micromole level
Human FXa
  IC50: > 1000 nM
other
  melting point: > 250 °C

## COc1ccc(C(=O)Nc2ccccc2C(=O)Nc2ccc(-n3ccccc3=O)cc2)cc1 [6l, 2-(4-methoxybenzamido)-N-(4-(2-oxopyridin-1(2H)-yl)phenyl)benzamide]
Human FXa
  IC50: 181 nM
other
  melting point: > 250 °C

## COc1ccc(C(=O)Nc2ccc(Cl)cc2C(=O)Nc2ccc(-n3ccccc3=O)cc2)cc1 [6l-a, 5-chloro-2-(4-methoxybenzamido)-N-(4-(2-oxopyridin-1(2H)-yl)phenyl)benzamide]
Human FXa
  IC50: > 1000 nM
other
  melting point: > 250 °C

## COc1ccc(C(=O)Nc2ccc(C)cc2C(=O)Nc2ccc(-n3ccccc3=O)cc2)cc1 [6l-b, 2-(4-methoxybenzamido)-5-methyl-N-(4-(2-oxopyrid-in-1(2H)-yl)phenyl)benzamide]
Human FXa
  IC50: 452 nM
other
  melting point: > 250 °C

## COc1ccc(C(=O)Nc2c(C)cccc2C(=O)Nc2ccc(-n3ccccc3=O)cc2)cc1 [6l-c, 2-(4-methoxybenzamido)-3-methyl-N-(4-(2-oxopyrid-in-1(2H)-yl)phenyl)benzamide]
Human FXa
  IC50: > 1000 nM
other
  melting point: > 250 °C

## COc1ccc(C(=O)Nc2ccccc2C(=O)Nc2ccc(N3CCOCC3=O)cc2)cc1 [6l-d, 2-(4-methoxybenzamido)-N-(4-(3-oxomorpholino)phe-nyl)benzamide]
Human FXa
  IC50: 459 nM
other
  melting point: > 250 °C

## COc1ccc(C(=O)Nc2ccc(Cl)cc2C(=O)Nc2ccc(N3CCOCC3=O)cc2)cc1 [6l-e, 5-chloro-2-(4-methoxybenzamido)-N-(4-(3-oxomorph-olino)phenyl)benzamide]
Human FXa
  IC50: 485 nM
other
  melting point: > 250 °C

## COc1ccc(C(=O)Nc2ccc(C)cc2C(=O)Nc2ccc(N3CCOCC3=O)cc2)cc1 [6l-f, 2-(4-methoxybenzamido)-5-methyl-N-(4-(3-oxomorph-olino)phenyl)benzamide]
Human FXa
  IC50: 433 nM
other
  melting point: > 250 °C

## COc1ccc(C(=O)Nc2c(C)cccc2C(=O)Nc2ccc(N3CCOCC3=O)cc2)cc1 [6l-g, 2-(4-methoxybenzamido)-3-methyl-N-(4-(3-oxomorph-olino)phenyl)benzamide]
Human FXa
  IC50: > 1000 nM
other
  melting point: > 250 °C

## COc1ccc(C(=O)Nc2ccccc2C(=O)Nc2ccc(-n3ccccc3=O)cc2)cc1OC [6m, 3,4-dimethoxy-N-(2-((4-(2-oxopyridin-1(2H)-yl)phenyl)arbamoyl)phenyl)benzamide]
Human FXa
  IC50: > 1000 nM
other
  melting point: > 250 °C

## COc1cc(C(=O)Nc2ccccc2C(=O)Nc2ccc(-n3ccccc3=O)cc2)cc(OC)c1OC [6n, 3,4,5-trimethoxy-N-(2-((4-(2-oxopyridin-1(2H)-yl)phenyl)carbamoyl)phenyl)benzamide]
Human FXa
  IC50: > 1000 nM
other
  melting point: > 250 °C

## O=C(Nc1ccccc1C(=O)Nc1ccc(-n2ccccc2=O)cc1)c1ccc(C(F)(F)F)cc1 [6o, N-(4-(2-oxopyridin-1(2H)-yl)phenyl)-2-(4-(trifluoro-methyl)benzamido)benzamide]
Human FXa
  IC50: > 1000 nM
other
  melting point: > 250 °C

## O=C(NC[C@H]1CN(c2ccc(N3CCOCC3=O)cc2)C(=O)O1)c1ccc(Cl)s1 [rivaroxaban, reference compound]
Human plasma
  2 × PT (Human): 0.2 µM
Human FIIa (thrombin)
  IC50: 6900 nM

From paper PMC5514901, “Synthesis and evaluation of anthranilamide-based derivatives as FXa inhibitors” (Oncotarget, 2017)
